Data taken from US7618657B2, “Active ingredients preparation and single compound purification from traditional Chinese herbal medicine Fructus Trichosanthis and uses thereof” (priority 2003, dated 2009).

Experiments:
K562 cells [1] = experiment: TMB staining of hemoglobin positive K562 cells; assay type: cell-based, human; conditions: six days culture, hydroxyurea (positive control) 25.0 μg/ml
Experimental: K562 cells (ATCC) were cultured in RPMI 1640 (Gibco) supplemented with 10% fetal calf serum (FCS, Gibco) and 1% PSN (Gibco). The cultures were maintained under a humidified atmosphere with 95% air/5% CO2 at 37° C.
The hemoglobin positive K562 cells can be identified by 3,3′,5,5′-tetramethylbenzidine (TMB, Sigma) staining. In brief, 10 μl/cell suspension was pipetted out and mixed with 10 μl TMB working solution. Five minutes later, cells were scored as positive (blue) or negative (pale yellow) at 200× microscope.
Before the assay, K562 cells were scored first by TMB staining to ensure there was no selfdifferentiation (TMB positive cell percentage less than 1.0%). 100 μl/well complete RPMI 1640 was added into a 96-well plate, and 180 μl was added in the first well. 20 μl Trichosanthes extraction components was added into the first well immediately. Then 100 μl of the mixture was transferred to the next well. By such one half dilution method, serial dilutions of Trichosanthes extraction components were got.
100 μl K562 cell suspension with the density of 4×10^4 cells/ml was add into each well of the 96-well plate. […] Then the hemoglobin positive cells were recorded by TMB staining.
Dose-response effect of the lead compound from Trichosanthes was studied on K562 cells which were cultured and assayed as described in example 3. […] Then the hemoglobin positive cells were recorded by TMB staining.

K562 cells [2] = experiment: FACS analysis of fetal hemoglobin expression in treated K562 cells; assay type: cell-based, human; conditions: HU 25 mg/ml, 6 days, FIG. 7
Experimental: K562 cells were cultured with hydroxyurea (HU, 25 mg/ml) and the lead compound from Trichosanthes (12.5 ng/ml) for 6 days. Then the cells were conjugated with PE labeled mouse anti human fetal hemoglobin monoclonal antibodies (Becton Dickinson) followed by FACS analysis. In brief, 1×10^6 cells were collected in a 15 ml falcon tube and centrifuged in 150 rpm for 5 min. The cell pallet was washed with PBS. Then cells were fixed by gently mixing with 1 ml PBS with 4% formaldehyde (37-40%, Merck) for 1 hr at room temperature. The fixed cells were washed once with PBS and then were resuspended in 100 μl 0.01% Triton X-100 (Merck) in PBS/0.1% BSA (Sigma). 20 μl monoclonal antibody was added in, followed by mixing thoroughly and incubating for 30 min in darkness at room temperature, with frequent gentle shaking. Finally the cells were washed with 1× PBS with 0.1% sodium azide once and kept in 4° C. until analysis.

## NC(=O)NO [Hydroxyurea, hydroxyurea]
K562 cells [1]
  TMB Positive Cell Percentage: 66.7 ± 4.4%
K562 cells [2]
  expression of fetal hemoglobin (FACS, PE labeled anti human fetal hemoglobin antibody): induced
